Results from ChEMBL document CHEMBL4376804, “Review of Transient Receptor Potential Canonical (TRPC5) Channel Modulators and Diseases” (J Med Chem, 2019).

Target: Transient receptor potential cation channel subfamily V member 1 (Rattus norvegicus, UniProt O35433)
Test: Inhibition of CFP-tagged rat TRPV1 expressed in HEK293 cells assessed as reduction in calcium level by fluo-4 dye based fluorescence assay
Type: cell-based

Sequence of Transient receptor potential cation channel subfamily V member 1 (O35433 whole entry): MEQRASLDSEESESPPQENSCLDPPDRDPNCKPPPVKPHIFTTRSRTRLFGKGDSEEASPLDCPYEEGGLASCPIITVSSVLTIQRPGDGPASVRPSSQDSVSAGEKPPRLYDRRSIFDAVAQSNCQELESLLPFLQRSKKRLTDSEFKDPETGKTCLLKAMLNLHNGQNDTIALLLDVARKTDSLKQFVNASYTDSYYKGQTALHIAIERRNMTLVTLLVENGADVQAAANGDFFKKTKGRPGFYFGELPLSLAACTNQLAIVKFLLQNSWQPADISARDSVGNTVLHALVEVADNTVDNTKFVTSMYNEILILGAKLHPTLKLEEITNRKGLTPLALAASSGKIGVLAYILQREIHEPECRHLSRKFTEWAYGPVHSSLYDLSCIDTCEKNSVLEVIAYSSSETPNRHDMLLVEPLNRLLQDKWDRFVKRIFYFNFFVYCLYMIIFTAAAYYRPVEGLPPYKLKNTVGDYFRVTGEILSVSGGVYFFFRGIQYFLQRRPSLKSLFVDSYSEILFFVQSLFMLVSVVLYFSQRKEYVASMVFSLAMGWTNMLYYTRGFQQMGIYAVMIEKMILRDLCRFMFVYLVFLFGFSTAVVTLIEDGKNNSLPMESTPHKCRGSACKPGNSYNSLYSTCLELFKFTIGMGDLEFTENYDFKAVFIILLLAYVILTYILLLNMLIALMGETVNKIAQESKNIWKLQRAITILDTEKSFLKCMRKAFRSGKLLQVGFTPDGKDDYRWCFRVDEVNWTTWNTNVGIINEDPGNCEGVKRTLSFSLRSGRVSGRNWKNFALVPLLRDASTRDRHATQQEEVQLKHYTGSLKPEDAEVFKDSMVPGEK

In the case of `Clc1ccc(Cn2c(CN3CCCC3)nc3ccccc32)cc1` [CLEMIZOLE], the IC50 is reported as greater than 20 µM.
